Source: ChEMBL document CHEMBL1127769, “Synthesis of new pyrazolo[4,3-e]1,2,4-triazolo[1,5-c] pyrimidine and 1,2,3-triazolo[4,5-e]1,2,4-triazolo[1,5-c] pyrimidine displaying potent and selective activity as A2a adenosine receptor antagonists” (Bioorg Med Chem Lett, 1994)

What was measured:
[1] = target: T1, Adenosine receptor A2a (Rattus norvegicus, UniProt P30543)
Description: Binding ability of adenosine A2a receptor by using [3H]-CGS- as radioligand in rat striatal homogenate

[2] = target: T2, Adenosine receptor A1 (Rattus norvegicus, UniProt P25099); assay: biochemical
T2 sequence (P25099 whole entry): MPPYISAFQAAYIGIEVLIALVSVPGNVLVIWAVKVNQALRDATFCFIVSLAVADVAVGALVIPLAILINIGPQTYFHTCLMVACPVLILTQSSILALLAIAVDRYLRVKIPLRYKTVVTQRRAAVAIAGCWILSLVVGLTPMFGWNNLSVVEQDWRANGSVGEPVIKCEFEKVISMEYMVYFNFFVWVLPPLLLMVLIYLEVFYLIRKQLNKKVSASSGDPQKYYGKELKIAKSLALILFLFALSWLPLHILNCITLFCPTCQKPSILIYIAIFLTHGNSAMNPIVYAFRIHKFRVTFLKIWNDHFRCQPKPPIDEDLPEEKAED
Description: Binding ability of adenosine A1 receptor by using [3H]CHA as radioligand in rat whole brain homogenate

[3] = target: T1, Adenosine receptor A2a; assay: Displacement of [3H]-CGS- from Adenosine A2a receptor of rat striatal homogenate

T1 sequence (P30543 whole entry): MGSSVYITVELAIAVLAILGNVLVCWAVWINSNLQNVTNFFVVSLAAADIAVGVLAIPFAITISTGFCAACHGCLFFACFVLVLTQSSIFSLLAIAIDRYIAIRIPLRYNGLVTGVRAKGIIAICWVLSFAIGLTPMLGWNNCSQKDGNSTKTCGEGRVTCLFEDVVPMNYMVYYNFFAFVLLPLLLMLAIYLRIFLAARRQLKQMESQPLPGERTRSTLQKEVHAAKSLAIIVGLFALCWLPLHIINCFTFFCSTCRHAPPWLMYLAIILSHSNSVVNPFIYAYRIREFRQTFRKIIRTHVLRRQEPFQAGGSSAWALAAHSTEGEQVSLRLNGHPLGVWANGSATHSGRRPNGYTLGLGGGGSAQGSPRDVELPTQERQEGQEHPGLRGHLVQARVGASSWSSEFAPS

SMILES	Ki [1] [nM]	Ki [2] [nM]	Ki [3] [nM]
Nc1nc2nn(Cc3ccc(F)cc3)nc2c2nc(-c3ccco3)nn12	2.5	18.3	–
CC(C)CCn1ncc2c1nc(N)n1nc(-c3ccco3)nc21	12	116	–
Nc1nc2nn(Cc3ccc(F)cc3)cc2c2nc(-c3ccco3)nn12	1.2	3.3	–
CCCCn1ncc2c1nc(N)n1nc(-c3ccco3)nc21	8.9	236	–
Nc1nc2ccc(Cl)cc2c2nc(-c3ccco3)nn12 [CGS-15943]	–	–	1.2
Nc1nc2c(nnn2Cc2ccc(F)cc2)c2nc(-c3ccco3)nn12	13.7	61.2	–
Cn1ncc2c1nc(N)n1nc(-c3ccco3)nc21	101	651	–
Nc1nc2c(nnn2CCc2ccccc2)c2nc(-c3ccco3)nn12	6.9	42.4	–

The next lines start with results.

Ki [1] [nM]	Ki [2] [nM]	SMILES	Ki [3] [nM]
1.4	4.7	Nc1nc2nn(CCc3ccccc3)cc2c2nc(-c3ccco3)nn12	–
10.4	13.7	Nc1nc2c(nnn2Cc2ccccc2F)c2nc(-c3ccco3)nn12	–
4.9	19	Nc1nc2c(nnn2Cc2cccc(F)c2)c2nc(-c3ccco3)nn12	–
2.4	30.4	CCCCn1cc2c(nc(N)n3nc(-c4ccco4)nc23)n1	–
–	5.6	CC(C)CCn1cc2c(nc(N)n3nc(-c4ccco4)nc23)n1	–
4.6	6.1	Nc1nc2c(nnn2Cc2ccccc2)c2nc(-c3ccco3)nn12	–
